Here are results for 22 compounds from patent US20120309796A1, “BENZOCYCLOHEPTENE ACETIC ACIDS” (priority 2011, published 2012).

This experiment addresses T1, human CRTH2 (Homo sapiens, UniProt Q9Y5Y4).
T1 sequence (Q9Y5Y4 1-395): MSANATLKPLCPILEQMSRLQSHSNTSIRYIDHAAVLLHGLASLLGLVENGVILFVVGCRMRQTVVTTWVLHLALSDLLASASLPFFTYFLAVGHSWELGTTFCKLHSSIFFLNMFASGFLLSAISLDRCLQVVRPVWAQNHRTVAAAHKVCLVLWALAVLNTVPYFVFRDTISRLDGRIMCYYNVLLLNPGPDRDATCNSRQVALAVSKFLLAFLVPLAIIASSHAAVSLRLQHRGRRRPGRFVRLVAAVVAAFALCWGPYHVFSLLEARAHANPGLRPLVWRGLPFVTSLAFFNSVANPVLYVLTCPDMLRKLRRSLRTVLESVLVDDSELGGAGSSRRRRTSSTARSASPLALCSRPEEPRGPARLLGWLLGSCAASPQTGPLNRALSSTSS
The experiment can be described thus: Human CRTH2 Receptor Binding Assay (whole cell, [3H]ramatroban competition). More on the design: two mammalian expression vectors that harbored human CRTH2 and G-alpha16 cDNAs; expressed in transfected cells. The following applies: CHO-K1 cells expressing human CRTH2 and G-alpha16; 20 nM [3H]ramatroban; 1 hour, room temperature. The source says:
A whole cell receptor binding assay using [^3H]ramatroban as the competing radioactive ligand was employed to evaluate the compound binding activity to human CRTH2. The radioactive ligand [^3H]ramatroban was synthesized according to Sugimoto et. al. (Eur. J. Pharmacol. 2005, 524, 30-37) to a specific activity of 42 Ci/mmol
A cell line stably expressing human CRTH2 was established by transfecting CHO-K1 cells with two mammalian expression vectors that harbored human CRTH2 and G-alpha16 cDNAs, respectively, using FuGene® 6 transfection reagent (from Roche). Stable clones expressing CRTH2 were selected by staining each clone with BM16 (BD Pharmingen™ from BD Biosciences, a division of Becton, Dickinson and Company), which is a rat monoclonal antibody to human CRTH2. The cells were maintained as monolayer cultures in Ham's F-12 medium containing 10% fetal bovine serum, 100 units/mL penicillin, 100 μg/mL streptomycin, 2 mM glutamine, 0.5 mg/mL G418 (geneticin) for CRTH2, and 0.2 mg/mL hygromycin-B (for G-alpha 16). For whole cell receptor binding assay, the monolayer cells were rinsed once with PBS (phosphate buffered saline), dissociated using ethylenediaminetetraacetate (Versene™ EDTA from Lonza Inc.), and suspended in PBS containing 10 mM MgCl2 and 0.06% BSA (bovine serum albumin) at 1.5×10^6 cells/mL.
The binding reactions (0.2 mL) were performed in 96-well plates at room temperature in PBS containing 1.5×10^5 cells, 10 mM MgCl2, 0.06% BSA, 20 nM [^3H]ramatroban, and test compound at various concentrations. After 1 hour of binding reactions, the cells were harvested on GF™/B filter microplates (microtiter plates with embedded glass fiber from PerkinElmer, Inc.) and washed 5 times with PBS using a Filtermate™ Harvester (a cell harvester that harvests and washes cells from microplates from PerkinElmer, Inc.). The radioactivities bound to the cells were determined using a microplate scintillation counter (TopCount® NXT, from PerkinElmer, Inc.) after adding 50 μL of Microscint™ 20 scintillation fluid (from PerkinElmer, Inc.) to each well of the filter plates. The radioactivity from non-specific binding was determined by replacing compound with 10 μM of 15(R)-15-methyl PGD2 (from Cayman Chemical Company) in the reaction mixtures. The radioactivity bound to the cells in the absence of compound (total binding) was determined by replacing compound with 0.25% of DMSO (dimethyl sulfoxide) in the reaction mixture. Specific binding data were obtained by subtracting the radioactivity of non-specific binding from each binding data.
The IC50 value is defined as the concentration of the tested compound that is required for 50% inhibition of total specific binding. In order to calculate the IC50 value, the percent inhibition data were determined for 7 concentrations for each compound. The percent inhibition for a compound at each concentration was calculated according to the following formula, [1-(specific binding in the presence of compound)/(total specific binding)]×100. The IC50 value was then obtained by fitting the percent inhibition data to a sigmoidal dose-response (4 parameter logistic) model in the XLfit® software Excel add-in program [from ID Business Solutions Ltd., model 205, where F(x)=(A+(B−A)/(1+((C/x)̂D)))].

What is called IC50 is the concentration at which inhibition is half-maximal. Lower therefore signals greater potency.

Compound `CC(C)c1cccc(-c2ccc(S(=O)(=O)NC3CCCCc4c(OCC(=O)O)cccc43)cc2)c1` (stereo not shown) [Example 19, [5-(3′-Isopropyl-biphenyl-4-sulfonylamino)-6,7,8,9-tetrahydro-5H-benzocyclohepten-1-yloxy]-acetic acid] showed an IC50 of 13 nM. `CN(C1CCCCc2c(OCC(=O)O)cccc21)S(=O)(=O)c1cc(C(F)(F)F)cc(S(C)(=O)=O)c1` (stereo not shown) [Example 18, {5-[(3-Methanesulfonyl-5-trifluoromethyl-benzenesulfonyl)-methyl-amino]-6,7,8,9-tetrahydro-5H-benzocyclohepten-1-yloxy}-acetic acid] displayed an IC50 of 11.4 nM. For `CN(C1CCCCc2c(OCC(=O)O)cccc21)S(=O)(=O)c1ccc(-c2cccc(S(C)(=O)=O)c2)cc1` (stereo not shown) [Example 30, {5-[(3′-Methanesulfonyl-biphenyl-4-sulfonyl)-methyl-amino]-6,7,8,9-tetrahydro-5H-benzocyclohepten-1-yloxy}-acetic acid], the IC50 was found to be 189 nM. Regarding `CC(C)c1cc(C(F)(F)F)cc(S(=O)(=O)N(C)C2CCCCc3c(OCC(=O)O)cccc32)c1` (stereo not shown) [Example 44, {5-[(3-Isopropyl-5-trifluoromethyl-benzenesulfonyl)-methyl-amino]-6,7,8,9-tetrahydro-5H-benzocyclohepten-1-yloxy}-acetic acid], the IC50 was 199 nM. `CC(C)c1cccc(-c2cccc(S(=O)(=O)N(C)C3CCCCc4c(OCC(=O)O)cccc43)c2)c1` (stereo not shown) [Example 42, {5-[(3′-Isopropyl-biphenyl-3-sulfonyl)-methyl-amino]-6,7,8,9-tetrahydro-5H-benzocyclohepten-1-yloxy}-acetic acid] showed an IC50 of 845 nM. As for `CN(C1CCCCc2c(OCC(=O)O)cccc21)S(=O)(=O)c1ccc(-c2cccc(CCO)c2)cn1` (stereo not shown) [Example 38, [5-({5-[3-(2-Hydroxy-ethyl)-phenyl]-pyridine-2-sulfonyl}-methyl-amino)-6,7,8,9-tetrahydro-5H-benzocyclohepten-1-yloxy]-acetic acid], the IC50 is 2120 nM. To `CN(C1CCCCc2c(OCC(=O)O)cccc21)S(=O)(=O)c1cc(F)cc(C(F)(F)F)c1` (stereo not shown) [Example 7, {5-[(3-Fluoro-5-trifluoromethyl-benzenesulfonyl)-methyl-amino]-6,7,8,9-tetrahydro-5H-benzocyclohepten-1-yloxy}-acetic acid] belongs 64.6 nM; to `CC(C)c1cc(C(F)(F)F)cc(S(=O)(=O)NC2CCCCc3c(OCC(=O)O)cccc32)c1` (stereo not shown) [Example 43, [5-(3-Isopropyl-5-trifluoromethyl-benzenesulfonylamino)-6,7,8,9-tetrahydro-5H-benzocyclohepten-1-yloxy]-acetic acid], 298 nM; to `O=C(O)COc1cccc2c1CCCCC2NS(=O)(=O)c1cc(C(F)(F)F)cc(C(F)(F)F)c1` (single isomer, unassigned) [Example 45, [5-(3,5-Bis-trifluoromethyl-benzenesulfonylamino)-6,7,8,9-tetrahydro-5H-benzocyclohepten-1-yloxy]-acetic acid], 1490 nM. As to `O=C(O)COc1cccc2c1CCCCC2NS(=O)(=O)c1cccc(-c2ccccc2)c1` (stereo not shown) [Example 3, [5-(Biphenyl-3-sulfonylamino)-6,7,8,9-tetrahydro-5H-benzocyclohepten-1-yloxy]-acetic acid], the IC50 was 2610 nM. For `Cc1ccc(-c2cccc(S(=O)(=O)NC3CCCCc4c(OCC(=O)O)cccc43)c2)cc1` (stereo not shown) [Example 39, [5-(4′-Methyl-biphenyl-3-sulfonylamino)-6,7,8,9-tetrahydro-5H-benzocyclohepten-1-yloxy]-acetic acid], the IC50 is 514 nM. To `CS(=O)(=O)c1cc(C(F)(F)F)cc(S(=O)(=O)NC2CCCCc3c(OCC(=O)O)cccc32)c1` (stereo not shown) [Example 17, [5-(3-Methanesulfonyl-5-trifluoromethyl-benzenesulfonylamino)-6,7,8,9-tetrahydro-5H-benzocyclohepten-1-yloxy]-acetic acid] belongs 11.4 nM; to `CN(C1CCCCc2c(OCC(=O)O)cccc21)S(=O)(=O)c1ccc(-c2ccccc2)cc1` (stereo not shown) [Example 12, {5-[(Biphenyl-4-sulfonyl)-methyl-amino]-6,7,8,9-tetrahydro-5H-benzocyclohepten-1-yloxy}-acetic acid], 750 nM. To `O=C(O)COc1cccc2c1CCCCC2NS(=O)(=O)c1cc(F)cc(C(F)(F)F)c1` (stereo not shown) [Example 6, [5-(3-Fluoro-5-trifluoromethyl-benzenesulfonylamino)-6,7,8,9-tetrahydro-5H-benzocyclohepten-1-yloxy]-acetic acid] belongs 171 nM; to `CC(=O)c1cc(C(F)(F)F)cc(S(=O)(=O)N(C)C2CCCCc3c(OCC(=O)O)cccc32)c1` (stereo not shown) [Example 16, {5-[(3-Acetyl-5-trifluoromethyl-benzenesulfonyl)-methyl-amino]-6,7,8,9-tetrahydro-5H-benzocyclohepten-1-yloxy}-acetic acid], 5.9 nM; to `Cc1cc(-c2ccc(S(=O)(=O)NC3CCCCc4c(OCC(=O)O)cccc43)cc2)cc(C(C)(C)C)c1` (stereo not shown) [Example 21, [5-(3′-tert-Butyl-5′-methyl-biphenyl-4-sulfonylamino)-6,7,8,9-tetrahydro-5H-benzocyclohepten-1-yloxy]-acetic acid], 34.7 nM. In the case of `CS(=O)(=O)c1cc(S(C)(=O)=O)cc(S(=O)(=O)NC2CCCCc3c(OCC(=O)O)cccc32)c1` (stereo not shown) [Example 10, [5-(3,5-Bis-methanesulfonyl-benzenesulfonylamino)-6,7,8,9-tetrahydro-5H-benzocyclohepten-1-yloxy]-acetic acid], the IC50 stood at 50.3 nM.

Take `COc1cc(C(F)(F)F)cc(S(=O)(=O)NC2CCCCc3c(OCC(=O)O)cccc32)c1` (stereo not shown) [Example 13, [5-(3-Methoxy-5-trifluoromethyl-benzenesulfonylamino)-6,7,8,9-tetrahydro-5H-benzocyclohepten-1-yloxy]-acetic acid]: the half-inhibitory concentration (IC50) was 158 nM. On to `CSc1cccc(-c2ccc(S(=O)(=O)NC3CCCCc4c(OCC(=O)O)cccc43)cc2)c1` (stereo not shown) [Example 27, [5-(3′-Methylsulfanyl-biphenyl-4-sulfonylamino)-6,7,8,9-tetrahydro-5H-benzocyclohepten-1-yloxy]-acetic acid], for which the IC50 stood at 24.3 nM. Compound `Cc1cc(-c2ccc(S(=O)(=O)N(C)C3CCCCc4c(OCC(=O)O)cccc43)cc2)cc(C(C)(C)C)c1` (stereo not shown) [Example 22, {5-[(3′-tert-Butyl-5′-methyl-biphenyl-4-sulfonyl)-methyl-amino]-6,7,8,9-tetrahydro-5H-benzocyclohepten-1-yloxy}-acetic acid] gave a 50% inhibitory concentration (IC50) of 189 nM. For `Cc1cncc(-c2ccc(S(=O)(=O)N(C)C3CCCCc4c(OCC(=O)O)cccc43)cc2)c1` (stereo not shown) [Example 26, (5-{Methyl-[4-(5-methyl-pyridin-3-yl)-benzenesulfonyl]-amino}-6,7,8,9-tetrahydro-5H-benzocyclohepten-1-yloxy)-acetic acid], the IC50 was 1500 nM. Compound `CC(C)c1cccc(-c2ccc(S(=O)(=O)N(C)C3CCCCc4c(OCC(=O)O)cccc43)cc2)c1` (stereo not shown) [Example 20, {5-[(3′-Isopropyl-biphenyl-4-sulfonyl)-methyl-amino]-6,7,8,9-tetrahydro-5H-benzocyclohepten-1-yloxy}-acetic acid] showed an IC50 of 106 nM.
